The source of these data is patent US20140242180A1, “NANOPARTICLES FOR CONTROLLING BLEEDING AND DRUG DELIVERY” (CASE WESTERN RESERVE UNIVERSITY, priority 2011, published 2014).

Entries after “also recorded” stand apart in the source; their conditions may differ.

This test has as its system activated platelets. The test is described as follows: in vitro screening of activated labeled platelets binding to polymer-modified surfaces. Type of test: cell-based. The settings on record: preliminary work; PEG 4600. The text has this:
An in vitro system was developed for high throughput screening of the coagulation efficiency of the synthetic platelets with the platelets labeled using CellTracker green following to facilitate ease of analysis. Essentially, this assay involves activating platelets which have been previously labeled with CellTracker and looking at the number that bind to surfaces modified with a polymer systems under agitation. This assay was validated with collagen. This system allowed one to efficiently and independently vary the PEG molecular weight and RGD motif (i.e. RGD, RGDS, and GRGDS).

GRGDS [GRGDS peptide]: the “adhesion and aggregation of activated platelets” value is “efficient adhesion and aggregation; also recorded: good binding and adhesion”.
